Measurements: PubChem BioAssay AID248 (DTP/NCI, 2004)
Toxic doses and inconclusive results are not listed. No stated cut-off is given here; in the data, active means T/C of 150% or more; inactive means T/C below 125%.

Tested on: L1210 leukemia ip in BDF1 mice, survival T/C
Assay: NCI In Vivo Anticancer Drug Screen. Data for tumor model L1210 Leukemia (intraperitoneal) in B6D2F1 (BDF1) mice
Conditions: endpoint: mean survival time, higher = longer survival
Outline: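 Tumor was transplanted into mice, which were then dosed with test compound or vehicle alone. Survival was recorded for each group, and the treated figure was expressed relative to the control figure.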

[1] = dose: 100.0 mg/kg/injection, schedule: Q01DX009 (ip), vehicle: saline with Tween-80
[2] = dose: 100.0 mg/kg/injection, schedule: Q04DX003 (ip), vehicle: Klucel (hydroxypropylcellulose) (HPC)
[3] = dose: 200.0 mg/kg/injection, schedule: Q01DX009 (ip), vehicle: saline with Tween-80
[4] = dose: 200.0 mg/kg/injection, schedule: Q04DX003 (ip), vehicle: Klucel (hydroxypropylcellulose) (HPC)
[5] = dose: 400.0 mg/kg/injection, schedule: Q01DX009 (ip), vehicle: saline with Tween-80
[6] = dose: 400.0 mg/kg/injection, schedule: Q04DX003 (ip), vehicle: Klucel (hydroxypropylcellulose) (HPC)
[7] = dose: 100.0 mg/kg/injection, schedule: Q01DX001 (ip), vehicle: saline
[8] = dose: 100.0 mg/kg/injection, schedule: Q04DX003 (ip), vehicle: saline
[9] = dose: 200.0 mg/kg/injection, schedule: Q01DX001 (ip), vehicle: saline
[10] = dose: 200.0 mg/kg/injection, schedule: Q04DX003 (ip), vehicle: saline
[11] = dose: 400.0 mg/kg/injection, schedule: Q01DX001 (ip), vehicle: saline
[12] = dose: 400.0 mg/kg/injection, schedule: Q04DX003 (ip), vehicle: saline
[13] = dose: 100.0 mg/kg/injection, schedule: Q04DX003 (ip), vehicle: saline with Tween-80
[14] = dose: 200.0 mg/kg/injection, schedule: Q04DX003 (ip), vehicle: saline with Tween-80
[15] = dose: 400.0 mg/kg/injection, schedule: Q04DX003 (ip), vehicle: saline with Tween-80
[16] = dose: 60.0 mg/kg/injection, schedule: Q01DX Z (ip), vehicle: saline
[17] = dose: 50.0 mg/kg/injection, schedule: Q01DX009 (ip), vehicle: Klucel (hydroxypropylcellulose) (HPC)
[18] = dose: 75.0 mg/kg/injection, schedule: Q01DX001 (ip), vehicle: saline
[19] = dose: 12.5 mg/kg/injection, schedule: Q01DX009 (ip), vehicle: Klucel (hydroxypropylcellulose) (HPC)

Measured: T/C

ClC12CCCC3CCCC(CCC1)C32 (centres undefined)
inactive: [1] 101 % of control | [2] 103 % of control | [3] 90 % of control | [4] 97 % of control | [5] 89 % of control | [6] 96 % of control

N#CCc1cc(Cl)ccc1OCC(=O)O
inactive: dose: 100.0 mg/kg/injection, schedule: Q04DX002 (ip), vehicle: Klucel (hydroxypropylcellulose) (HPC) 95 % of control | dose: 200.0 mg/kg/injection, schedule: Q04DX002 (ip), vehicle: Klucel (hydroxypropylcellulose) (HPC) 103 % of control | dose: 400.0 mg/kg/injection, schedule: Q04DX002 (ip), vehicle: Klucel (hydroxypropylcellulose) (HPC) 100 % of control

CS/C(N)=N\NC(N)=S
inactive: dose: 100.0 mg/kg/injection, schedule: Q01DX001 (ip), vehicle: Klucel (hydroxypropylcellulose) (HPC) 96 % of control | dose: 200.0 mg/kg/injection, schedule: Q01DX001 (ip), vehicle: Klucel (hydroxypropylcellulose) (HPC) 88 % of control

O=C(O)CSc1ccc(NC(=O)Nc2ccccc2F)cc1
inactive: [7] 90 % of control | [1] 92 % of control | [8] 100 % of control | [9] 88 % of control | [3] 89 % of control | [10] 94 % of control | [11] 92 % of control | [5] 86 % of control | [12] 92 % of control

CC(C)C(C(=O)O)N1C(=O)C2C3C=CC(C3)C2C1=O (centres undefined)
inactive: [13] 102 % of control | [14] 102 % of control | [15] 97 % of control

COC(=O)N1C=Cc2ccccc2C1C#N (centres undefined)
inactive: [8] 107 % of control

O=C(C[N+]12CN3CN(CN(C3)C1)C2)c1ccc(Cl)cc1
inactive: dose: 40.0 mg/kg/injection, schedule: Q01DX Z (ip), vehicle: saline 98 % of control | dose: 44.0 mg/kg/injection, schedule: Q01DX Z (ip), vehicle: carboxymethylcellulose (CMC) 109 % of control | dose: 50.0 mg/kg/injection, schedule: Q01DX001 (ip), vehicle: carboxymethylcellulose (CMC) 107 % of control | [16] 107 % of control | dose: 73.0 mg/kg/injection, schedule: Q01DX Z (ip), vehicle: carboxymethylcellulose (CMC) 110 % of control | dose: 90.0 mg/kg/injection, schedule: Q01DX Z (ip), vehicle: saline 109 % of control | dose: 100.0 mg/kg/injection, schedule: Q01DX001 (ip), vehicle: carboxymethylcellulose (CMC) 102 % of control | dose: 110.0 mg/kg/injection, schedule: Q01DX Z (ip), vehicle: carboxymethylcellulose (CMC) 113 % of control | dose: 135.0 mg/kg/injection, schedule: Q01DX Z (ip), vehicle: saline 109 % of control | dose: 165.0 mg/kg/injection, schedule: Q01DX Z (ip), vehicle: carboxymethylcellulose (CMC) 115 % of control | dose: 200.0 mg/kg/injection, schedule: Q01DX001 (ip), vehicle: carboxymethylcellulose (CMC) 100 % of control | dose: 202.5 mg/kg/injection, schedule: Q01DX Z (ip), vehicle: saline 112 % of control | dose: 303.7 mg/kg/injection, schedule: Q01DX Z (ip), vehicle: saline 113 % of control | dose: 400.0 mg/kg/injection, schedule: Q01DX001 (ip), vehicle: carboxymethylcellulose (CMC) 107 % of control

O=[N+]([O-])c1ccc(S(=O)(=O)CCCl)cc1
inactive: [17] 100 % of control | dose: 100.0 mg/kg/injection, schedule: Q01DX009 (ip), vehicle: Klucel (hydroxypropylcellulose) (HPC) 91 % of control

Clc1ccc(N2CCNCC2)cc1
inactive: [18] 101 % of control

Cc1ccc(N=Nc2sc(N)nc2C)c(C)c1
inactive: [18] 97 % of control | dose: 150.0 mg/kg/injection, schedule: Q01DX001 (ip), vehicle: saline 103 % of control

CC1(C)C(C#N)C(=O)N(Cc2ccccc2)C(=O)C1C#N (centres undefined)
inactive: [13] 101 % of control | [14] 93 % of control

CC(C)CC1(C)NC(=O)NC1=O (centres undefined)
inactive: [1] 97 % of control | [3] 102 % of control | [5] 97 % of control

CC(C)C1(Br)C(=O)NC(=O)NC1=O
inactive: dose: 6.25 mg/kg/injection, schedule: Q01DX009 (ip), vehicle: Klucel (hydroxypropylcellulose) (HPC) 103 % of control | [19] 108 % of control

Cc1cc(=O)[nH]c(N/N=C/c2ccc(N(CCCl)CCCl)cc2)n1
inactive: [13] 102 % of control | [14] 105 % of control | [15] 109 % of control

CC(=O)OCC1OC(OC(C)=O)C(NC(=O)N(C)c2ccccc2)C(OC(C)=O)C1OC(C)=O (centres undefined)
inactive: [2] 105 % of control | [4] 105 % of control | [6] 105 % of control

CN(C)NP(=O)(NN(C)C)N(C)C
inactive: [8] 100 % of control | [10] 100 % of control | [12] 94 % of control

CCCCCCN1C(C)C1C(C)C (centres undefined)
inactive: dose: 20.0 mg/kg/injection, schedule: Q01DX009 (ip), vehicle: saline 114 % of control | dose: 20.0 mg/kg/injection, schedule: Q04DX003 (ip), vehicle: Klucel (hydroxypropylcellulose) (HPC) 105 % of control | dose: 40.0 mg/kg/injection, schedule: Q01DX009 (ip), vehicle: saline 115 % of control | dose: 40.0 mg/kg/injection, schedule: Q04DX003 (ip), vehicle: Klucel (hydroxypropylcellulose) (HPC) 100 % of control | dose: 80.0 mg/kg/injection, schedule: Q01DX009 (ip), vehicle: saline 107 % of control | dose: 80.0 mg/kg/injection, schedule: Q04DX003 (ip), vehicle: Klucel (hydroxypropylcellulose) (HPC) 105 % of control

COc1ccc([N+](=O)[O-])cc1[I+]c1cc([N+](=O)[O-])ccc1OC
inactive: dose: 50.0 mg/kg/injection, schedule: Q01DX001 (ip), vehicle: saline 111 % of control | [7] 90 % of control | [9] 96 % of control | [11] 90 % of control

CCCCCC(CN(C)C)C(=O)/C=C\c1ccc(Cl)cc1Cl (centres undefined)
inactive: dose: 12.5 mg/kg/injection, schedule: Q04DX003 (ip), vehicle: alcohol 87 % of control | dose: 25.0 mg/kg/injection, schedule: Q04DX003 (ip), vehicle: alcohol 97 % of control | dose: 50.0 mg/kg/injection, schedule: Q04DX003 (ip), vehicle: alcohol 97 % of control

COc1ccc(/C=N/N=C(N)N)cc1S(=O)(=O)O
inactive: dose: 15.0 mg/kg/injection, schedule: Q01DX Z (ip), vehicle: saline 95 % of control | dose: 30.0 mg/kg/injection, schedule: Q01DX Z (ip), vehicle: saline 90 % of control | [16] 88 % of control | dose: 60.0 mg/kg/injection, schedule: Q01DX Z (oral), vehicle: saline 95 % of control | dose: 120.0 mg/kg/injection, schedule: Q01DX Z (ip), vehicle: saline 92 % of control | dose: 120.0 mg/kg/injection, schedule: Q01DX Z (oral), vehicle: saline 97 % of control | dose: 240.0 mg/kg/injection, schedule: Q01DX Z (oral), vehicle: saline 97 % of control | dose: 480.0 mg/kg/injection, schedule: Q01DX Z (oral), vehicle: saline 98 % of control

CC1CN1C(=O)c1cc(C(=O)N2CC2C)cc(C(=O)N2CC2C)c1 (centres undefined)
inactive: dose: 15.0 mg/kg/injection, schedule: Q01DX001 (ip), vehicle: saline 102 % of control | dose: 15.0 mg/kg/injection, schedule: Q04DX003 (ip), vehicle: saline 98 % of control | dose: 30.0 mg/kg/injection, schedule: Q01DX001 (ip), vehicle: saline 105 % of control | dose: 30.0 mg/kg/injection, schedule: Q04DX003 (ip), vehicle: saline 98 % of control | dose: 60.0 mg/kg/injection, schedule: Q01DX001 (ip), vehicle: saline 102 % of control | dose: 60.0 mg/kg/injection, schedule: Q04DX003 (ip), vehicle: saline 102 % of control

CC(C)=CCC(C#N)(CCN1CCCC1)c1cccc2ccccc12 (centres undefined)
inactive: [19] 100 % of control | dose: 25.0 mg/kg/injection, schedule: Q01DX009 (ip), vehicle: Klucel (hydroxypropylcellulose) (HPC) 118 % of control | [17] 105 % of control

COc1ccc2c(c1)CCc1cnoc1-2
inactive: [2] 93 % of control | [4] 95 % of control | [6] 95 % of control

c1ccc(C[Si](c2ccccc2)c2ccccc2)cc1
inactive: [2] 107 % of control | [4] 100 % of control | [6] 98 % of control

CC(=O)NN(CCN(NC(C)=O)C(C)=O)C(C)=O
inactive: [8] 104 % of control | [10] 95 % of control | [12] 101 % of control

ClCC1CC2CC1C1OC21 (centres undefined)
inactive: [7] 106 % of control
